Among the data in patent US20240025899A1, “TRIHETEROCYCLIC DERIVATIVE, AND PHARMACEUTICAL COMPOSITION AND APPLICATION THEREOF” (SHANGHAI DE NOVO PHARMATECH CO., LTD., priority 2020, published 2024) are IC50 values, retold here.

A word on the pIC50: it is −log10 of the IC50, conventionally taken in molar units.

Structures are written as SMILES. pIC50: −log10 of the molar value. Structures can show the parent of a compound that is named as a salt. Where two headings read alike, the source gives them in different places. Where only a bound is given, the exact number is not on record here.

The target in assay [1] is hERG channel (Homo sapiens (Human), UniProt Q12809). In words: Cardiac safety evaluation, hERG study (QPatch whole-cell recording). Type of assay: cell-based. Particulars: CHO cell line expressing hERG channel. The protocol: In this experiment, a CHO cell line stably transfected with hERG cDNA and expressing p15 hERG channel was used. Cells were incubated at 37° C. in a humidified incubator containing 5% CO2 in medium (Ham's F12, 10% v/v FBS, 100 μg/mL hygromycin B, 100 μg/mL geneticin) (from Invitrogen). Cells were grown under the above conditions and reached approximately 80-90% of the confluency. Cells were treated with Detachin (Genlantis) for 3 to 5 minutes. The medium was titrated 15 to 20 times at 37° C., and then the cells were resuspended in CHO-S-SFM II medium (serum-free medium, Invitrogen) buffered with HEPES (25 mM). Cells used for QPatch studies must meet the following criteria: Most suspension cells should be single and isolated under microscopy; viability should be greater than 95%; cell density in the final suspension should be in the range of 3 to 8×10^6 cells/mL before application to the QPatch stir chamber. Cells meeting the above conditions can be used for recordings within 4 hours of harvest.
Test compounds were made into 10 mM DMSO stock solutions. Six doses (30, 10, 3, 1, 0.3 and 0.1 μM) were selected to obtain the fitted curves and IC50. The final DMSO concentration was 0.1% or less. The IC50 of the positive control cisapride was assessed at doses of 3, 1, 0.3, 0.1, 0.03 and 0.01 μM, respectively. Composition of […] for electrophysiological recordings: CaCl2 2 mM, MgCl2 1 mM, KCl 4 mM, NaCl 145 mM, Glucose 10 mM, HEPES 10 mM, pH 7.4 (NaOH), composition of external solution: CaCl2 […], MgCl2 1.75 mM, KCl 120 mM, HEPES 10 mM, EGTA 5 mM, Na-ATP 4 mM, pH 7.25 (KOH) (all reagents used were from sigma).
Whole-cell recordings were performed using automated QPatch (Sophion Biosciences, Denmark). Cells were recorded for 120 s to assess current stability. The above voltages were then applied to the cells every 15 s throughout the procedure. […]
The data were analyzed with Sophion Assay software (determination software V5.0), Microsoft Excel and Graphpad Prism 5.0 to obtain IC50 of compounds.
Background: Block of hERG is tested as a sign of cardiac risk.

In assay [2] the target is CYP2C19 (Homo sapiens (Human), UniProt P33261). The assay is described as follows: Cytochrome oxidase P450 inhibition study, CYP2C19. The assay is classed as in vitro ADME. Particulars: human liver microsomes; read-out: IC50 2C19. The protocol: (§1) LC-MS/MS methods were used to evaluate the inhibitory effects of compounds on CYP2C19, 2D6 and 3A4 subtypes. In this method, the test compound was mixed with a solution of human liver microsomes containing CYP model substrates, and incubated together under the addition of NADPH, then the inhibitory IC50 of the compound on CYP2C19, 2D6 and 3A4 was calculated by measuring the amount of metabolites of the model substrate in the reaction solution. The specific experimental method is as follows:
(§2) Compounds to be tested were prepared as stock solutions at 10 mM concentration with DMSO and then diluted to 4 mM with acetonitrile solution. At the same time, the corresponding reference inhibitor solutions for CYP subtypes were prepared, for example, the reference inhibitor was Ketoconazole, then these two compounds were prepared separately ([…] of inhibitor DMSO stock solution+[…] of acetonitrile), and the samples prepared under the above conditions were at 400× concentration. Then, the above solution was 3-fold diluted with DMSO/acetonitrile mixture (v/v: 40/60) to prepare the final test solution, and seven concentration points were set for each test compound, and the initial test final concentration was 10 μM. […]
(§3) […] of human liver microsome solution (0.2 mg/mL) was added to each well containing the test compound in the 96-well plate, and then 2 mL of the final test sample of test compounds prepared by serial dilution as described above was added thereto; for each well corresponding to the reference inhibitors, […] of human liver microsome solution (0.2 mg/mL) and 1 mL of the final test sample were added. […] The inhibition rate was determined by comparing the amount of model substrate metabolites at each test concentration without test substance addition, in the GraphPad Prism 5.0 software, the logarithm of the test concentration was used as the abscissa and the inhibition rate was used as the ordinate to perform a linear regression (Sigmoidal (non-linear) dose-response model) analysis to obtain the IC50 value of the test compound.
(Liver microsomes are a subcellular fraction often used to study metabolism.)

Assay [3] has as its target CYP2D6 (Homo sapiens (Human), UniProt P10635). In words: Cytochrome oxidase P450 inhibition study, CYP2D6. Particulars: human liver microsomes; read-out: IC50 2D6. The assay is classed as in vitro ADME. The protocol:
as §1, §2, §3

In assay [4] the target is CYP3A4 (Homo sapiens (Human), UniProt P08684). In words: Cytochrome oxidase P450 inhibition study, CYP3A4. The assay is classed as in vitro ADME. The following applies: human liver microsomes. The protocol:
as §1
Compounds to be tested were prepared as stock solutions at 10 mM concentration with DMSO and then diluted to 4 mM with acetonitrile solution. At the same time, the corresponding reference inhibitor solutions for CYP subtypes were prepared, for example, the reference inhibitor was Ketoconazole, then these two compounds were prepared separately ([…] of inhibitor DMSO stock solution+[…] of acetonitrile), and the samples prepared under the above conditions were at 400× concentration. Then, the above solution was 3-fold diluted with DMSO/acetonitrile mixture (v/v: 40/60) to prepare the final test solution, and seven concentration points were set for each test compound, and the initial test final concentration was 10 μM. NADPH, CYP enzyme model substrate and human liver microsome solution were diluted to appropriate concentrations with pre-warmed potassium phosphate buffer (0.1 M, pH 7.4), respectively. The human liver microsome solution was purchased from BD Gentest (20 mg/mL, Corning, article number #452161).
[…] of human liver microsome solution (0.2 mg/mL) was added to each well containing the test compound in the 96-well plate, and then 2 mL of the final test sample of test compounds prepared by serial dilution as described above was added thereto; for each well corresponding to the reference inhibitors, […] of human liver microsome solution (0.2 mg/mL) and 1 mL of the final test sample were added. […] of the prepared corresponding model substrate was dispensed into a 96-well plate, and the microsome solution was mixed evenly, then 30 mL of the test compound/reference inhibitor-human liver microsome mixture was taken and transferred to the 96-well plate containing the substrate, and the mixture was mixed well and preheated at 37° C. for 5 minutes, then […] of 8 mM NADPH solution preheated at 37° C. was added thereto to start the reaction. A duplicate well control and a blank control without the addition of test substances were set at the same time. The 96-well plate containing a total volume of […] of reaction solution was incubated at 37° C. After the incubation, 120 μL of cold acetonitrile solution containing internal standard was added to each well to terminate the reaction, and then the 96-well plate was shaked on a microplate shaker for 5 minutes (600 rpm/min), and put into a centrifuge and centrifuged for 20 minutes at 6000 rpm, 4° C. Then 40 μL of supernatant from each well was transferred to another 96-well plate, and 80 μL of ultrapure water was added to each well, put into a shaker and mixed for 5 minutes (600 rpm/min), and centrifuged at 6000 rpm, 4° C., for 20 minutes. Then LC-MS/MS detection was performed. The inhibition rate was determined by comparing the amount of model substrate metabolites at each test concentration without test substance addition, in the GraphPad Prism 5.0 software, the logarithm of the test concentration was used as the abscissa and the inhibition rate was used as the ordinate to perform a linear regression (Sigmoidal (non-linear) dose-response model) analysis to obtain the IC50 value of the test compound.

Assay [5] deals with ATR/ATRIP kinase (Homo sapiens (Human), UniProt Q13535). In words: ATR enzyme assay (HTRF, phosphorylation of substrate protein P53). The assay is classed as biochemical. The following applies: substrate P53, TR-FRET. The protocol: In this experiment, the phosphorylation level of substrate protein P53 (Eurofins, 14-952) was detected by HTRF technology to measure the activity of ATR/ATRIP (Eurofins, 14-953) kinase. Reaction buffer (25 mM HEPES pH 8.0, 0.01% Brij-35, 1% Glycerol, 5 mM DTT, 1 mg/mL BSA), termination buffer (12.5 mM HEPES pH 8.0, 0.005% Brij-35, 0.5% Glycerol, 250 mM EDTA) and assay buffer (50 mM HEPES pH 7.0, 150 mM NaCl, 267 mM KF, 0.1% sodium cholate, 0.01% Tween 20) were prepared in advance. ATR/ATRIP was diluted with reaction buffer to a working solution of 2 ng/μL, and the substrate protein P53 was diluted with reaction buffer to a working solution of 80 nM, and 4 nM of ATP (Sigma, A2383) working solution (containing 40 mM MnCl2) was prepared with reaction buffer. The compound was 3-fold diluted with DMSO, then diluted with reaction buffer into a working solution, then added to a 384-well plate at 2.5 μL/well, and centrifuged at 1500 rpm for 40 s. Then 2.5 μL of ATR/ATRIP working solution, P53 working solution and ATP working solution were added into the 384-well plate, centrifuged at 1500 rpm for 40 s and reacted at room temperature for 30 minutes. After the reaction was completed, 5 μL of termination buffer was added to each well, and centrifuged at 1500 rpm for 40 s. Antibody working solution containing 0.083 μg/mL anti-phospho-p53 (Ser15)-K (CisBio, cat. 61P08KAE) and 5 μg/mL anti-GST-d2 (CisBio, cat. 61GSTDLA) was prepared with assay buffer and added to the 384-well plate at 5 μL/well, then centrifuged at 1500 rpm for 40 s and reacted overnight at room temperature. Microplate reader (Tecan, Infinite M1000 Pro) was used to detect TR-FRET, and the data were analyzed with Graphpad software, and the four-parameter equation was used to fit the curve and calculate the IC50 value of the inhibitor (Table 1).
A general note: In TR-FRET formats the signal depends on donor and acceptor labels being close together.

Sequence of CYP3A4 (P08684 whole entry): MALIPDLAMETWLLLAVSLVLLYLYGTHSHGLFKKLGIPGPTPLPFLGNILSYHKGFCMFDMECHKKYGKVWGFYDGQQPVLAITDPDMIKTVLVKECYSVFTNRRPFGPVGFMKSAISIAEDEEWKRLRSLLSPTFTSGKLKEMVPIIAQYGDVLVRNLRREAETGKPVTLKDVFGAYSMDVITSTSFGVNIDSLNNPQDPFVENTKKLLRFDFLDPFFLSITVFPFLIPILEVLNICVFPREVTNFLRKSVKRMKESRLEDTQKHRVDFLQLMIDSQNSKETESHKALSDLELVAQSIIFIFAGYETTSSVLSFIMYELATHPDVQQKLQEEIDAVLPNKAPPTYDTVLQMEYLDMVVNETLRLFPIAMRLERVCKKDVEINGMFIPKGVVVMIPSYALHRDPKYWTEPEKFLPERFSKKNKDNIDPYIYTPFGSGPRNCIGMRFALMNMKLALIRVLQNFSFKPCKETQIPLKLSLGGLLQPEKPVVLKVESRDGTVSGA
Sequence of ATR/ATRIP kinase (Q13535 whole entry): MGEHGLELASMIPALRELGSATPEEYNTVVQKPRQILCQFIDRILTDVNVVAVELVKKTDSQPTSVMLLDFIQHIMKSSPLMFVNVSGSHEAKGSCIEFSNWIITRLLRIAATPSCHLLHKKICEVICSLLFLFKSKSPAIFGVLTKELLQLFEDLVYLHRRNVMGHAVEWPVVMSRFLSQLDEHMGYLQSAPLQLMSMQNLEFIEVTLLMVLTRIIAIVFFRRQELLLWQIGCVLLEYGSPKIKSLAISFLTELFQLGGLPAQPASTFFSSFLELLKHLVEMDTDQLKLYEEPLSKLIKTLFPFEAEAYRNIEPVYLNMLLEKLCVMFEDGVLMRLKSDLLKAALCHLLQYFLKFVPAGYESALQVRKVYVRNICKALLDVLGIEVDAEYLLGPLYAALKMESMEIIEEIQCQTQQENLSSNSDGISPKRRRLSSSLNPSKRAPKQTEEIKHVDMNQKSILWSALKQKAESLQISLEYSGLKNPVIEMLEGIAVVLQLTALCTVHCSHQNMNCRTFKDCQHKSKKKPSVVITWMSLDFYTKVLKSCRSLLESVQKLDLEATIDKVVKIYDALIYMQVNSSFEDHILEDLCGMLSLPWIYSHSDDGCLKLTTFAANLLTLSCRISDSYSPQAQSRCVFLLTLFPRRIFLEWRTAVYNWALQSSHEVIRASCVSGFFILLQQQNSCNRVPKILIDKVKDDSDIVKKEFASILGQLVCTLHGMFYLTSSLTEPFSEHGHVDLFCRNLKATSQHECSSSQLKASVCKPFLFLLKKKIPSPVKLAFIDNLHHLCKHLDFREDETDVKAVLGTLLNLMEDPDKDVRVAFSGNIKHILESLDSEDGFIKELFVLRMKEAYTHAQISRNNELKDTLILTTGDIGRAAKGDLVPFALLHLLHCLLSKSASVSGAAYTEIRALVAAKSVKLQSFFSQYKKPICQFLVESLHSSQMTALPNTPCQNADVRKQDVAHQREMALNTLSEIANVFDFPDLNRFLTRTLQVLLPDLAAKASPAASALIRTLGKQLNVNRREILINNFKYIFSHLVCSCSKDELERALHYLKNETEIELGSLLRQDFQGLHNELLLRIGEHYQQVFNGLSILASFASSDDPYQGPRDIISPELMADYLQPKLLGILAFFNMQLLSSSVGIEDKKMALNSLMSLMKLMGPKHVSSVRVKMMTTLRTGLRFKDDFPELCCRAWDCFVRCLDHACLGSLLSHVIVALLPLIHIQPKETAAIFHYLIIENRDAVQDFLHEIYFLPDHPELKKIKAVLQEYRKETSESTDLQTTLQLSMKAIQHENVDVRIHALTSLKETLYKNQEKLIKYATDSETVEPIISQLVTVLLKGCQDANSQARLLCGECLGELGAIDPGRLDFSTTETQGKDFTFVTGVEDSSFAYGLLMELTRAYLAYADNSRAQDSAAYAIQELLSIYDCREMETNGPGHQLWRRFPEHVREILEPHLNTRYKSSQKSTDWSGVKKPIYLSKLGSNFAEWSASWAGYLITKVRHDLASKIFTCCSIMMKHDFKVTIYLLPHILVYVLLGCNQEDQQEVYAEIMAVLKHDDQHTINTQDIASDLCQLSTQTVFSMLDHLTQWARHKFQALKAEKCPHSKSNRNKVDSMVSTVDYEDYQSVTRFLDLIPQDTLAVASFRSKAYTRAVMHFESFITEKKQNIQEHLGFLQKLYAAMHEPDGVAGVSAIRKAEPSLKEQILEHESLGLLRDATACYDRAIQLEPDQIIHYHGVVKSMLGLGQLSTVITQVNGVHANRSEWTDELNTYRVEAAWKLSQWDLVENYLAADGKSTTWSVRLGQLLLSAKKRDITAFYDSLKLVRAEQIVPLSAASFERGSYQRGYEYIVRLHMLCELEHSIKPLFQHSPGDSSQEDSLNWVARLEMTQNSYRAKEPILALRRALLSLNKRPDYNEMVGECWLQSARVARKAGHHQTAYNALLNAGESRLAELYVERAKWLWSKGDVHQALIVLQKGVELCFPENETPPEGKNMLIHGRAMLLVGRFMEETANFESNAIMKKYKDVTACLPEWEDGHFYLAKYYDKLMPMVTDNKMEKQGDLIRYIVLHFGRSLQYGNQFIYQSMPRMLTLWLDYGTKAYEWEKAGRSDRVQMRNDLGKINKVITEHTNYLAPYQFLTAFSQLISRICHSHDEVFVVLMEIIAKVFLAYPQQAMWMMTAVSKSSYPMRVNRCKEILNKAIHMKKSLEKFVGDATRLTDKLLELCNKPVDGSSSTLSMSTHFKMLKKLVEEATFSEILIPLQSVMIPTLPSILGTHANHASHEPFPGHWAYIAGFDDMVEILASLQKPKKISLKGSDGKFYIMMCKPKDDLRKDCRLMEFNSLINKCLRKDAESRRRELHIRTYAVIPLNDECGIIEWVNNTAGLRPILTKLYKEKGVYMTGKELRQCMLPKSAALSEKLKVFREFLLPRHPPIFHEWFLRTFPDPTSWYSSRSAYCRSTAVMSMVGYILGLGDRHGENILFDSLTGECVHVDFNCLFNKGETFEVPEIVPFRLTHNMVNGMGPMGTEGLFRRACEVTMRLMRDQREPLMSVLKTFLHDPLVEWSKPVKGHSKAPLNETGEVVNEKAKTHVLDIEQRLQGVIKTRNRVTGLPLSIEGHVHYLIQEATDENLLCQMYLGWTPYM
Sequence of ATR/ATRIP kinase (Q8WXE1 whole entry partner): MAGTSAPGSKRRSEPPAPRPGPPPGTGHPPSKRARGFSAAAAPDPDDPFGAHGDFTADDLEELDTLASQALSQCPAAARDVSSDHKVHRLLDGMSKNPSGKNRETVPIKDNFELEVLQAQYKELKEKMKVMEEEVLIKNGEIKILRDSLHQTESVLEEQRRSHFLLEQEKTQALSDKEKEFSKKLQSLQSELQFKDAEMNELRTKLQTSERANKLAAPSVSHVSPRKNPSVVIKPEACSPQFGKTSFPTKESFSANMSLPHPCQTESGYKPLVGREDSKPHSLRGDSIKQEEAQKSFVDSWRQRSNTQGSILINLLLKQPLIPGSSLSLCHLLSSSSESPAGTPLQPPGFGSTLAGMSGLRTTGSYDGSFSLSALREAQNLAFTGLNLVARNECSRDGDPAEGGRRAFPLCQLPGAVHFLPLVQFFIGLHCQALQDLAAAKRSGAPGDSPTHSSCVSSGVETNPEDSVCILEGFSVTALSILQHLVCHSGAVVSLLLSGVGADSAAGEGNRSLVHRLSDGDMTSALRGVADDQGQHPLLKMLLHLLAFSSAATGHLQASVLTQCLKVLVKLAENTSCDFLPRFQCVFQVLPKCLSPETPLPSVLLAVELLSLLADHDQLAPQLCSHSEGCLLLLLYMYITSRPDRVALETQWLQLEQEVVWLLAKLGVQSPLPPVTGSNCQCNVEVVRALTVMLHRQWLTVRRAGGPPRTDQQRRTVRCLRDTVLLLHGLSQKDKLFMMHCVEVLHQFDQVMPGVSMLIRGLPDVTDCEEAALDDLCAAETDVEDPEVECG
Sequence of CYP2C19 (P33261 whole entry): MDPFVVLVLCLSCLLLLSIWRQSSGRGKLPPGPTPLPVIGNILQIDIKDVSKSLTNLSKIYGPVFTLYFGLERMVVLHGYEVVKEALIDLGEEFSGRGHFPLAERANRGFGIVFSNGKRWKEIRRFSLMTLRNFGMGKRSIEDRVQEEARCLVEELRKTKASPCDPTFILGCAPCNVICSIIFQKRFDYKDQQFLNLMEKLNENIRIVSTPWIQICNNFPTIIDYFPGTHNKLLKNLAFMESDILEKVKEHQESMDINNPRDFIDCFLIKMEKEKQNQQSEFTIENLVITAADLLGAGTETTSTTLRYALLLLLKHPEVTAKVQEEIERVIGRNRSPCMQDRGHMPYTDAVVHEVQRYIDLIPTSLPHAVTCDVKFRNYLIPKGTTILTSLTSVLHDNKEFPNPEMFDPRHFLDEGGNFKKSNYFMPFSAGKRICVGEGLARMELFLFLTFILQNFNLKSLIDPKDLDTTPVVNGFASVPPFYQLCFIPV
Sequence of CYP2D6 (P10635 whole entry): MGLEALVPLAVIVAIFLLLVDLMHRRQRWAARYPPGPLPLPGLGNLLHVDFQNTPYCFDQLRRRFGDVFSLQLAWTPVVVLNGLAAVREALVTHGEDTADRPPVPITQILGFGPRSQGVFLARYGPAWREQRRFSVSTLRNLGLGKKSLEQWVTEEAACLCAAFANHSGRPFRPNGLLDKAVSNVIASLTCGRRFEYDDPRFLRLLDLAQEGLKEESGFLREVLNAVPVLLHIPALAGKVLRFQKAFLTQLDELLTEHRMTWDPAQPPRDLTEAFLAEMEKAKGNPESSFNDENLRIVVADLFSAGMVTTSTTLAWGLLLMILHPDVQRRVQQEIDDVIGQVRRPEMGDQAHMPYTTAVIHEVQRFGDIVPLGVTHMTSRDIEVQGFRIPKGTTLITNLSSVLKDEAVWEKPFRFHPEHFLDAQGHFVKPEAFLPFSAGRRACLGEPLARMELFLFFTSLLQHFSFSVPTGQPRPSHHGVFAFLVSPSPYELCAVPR

With `C[C@@H]1COCCN1c1nc2c(cnn2-c2cc[nH]n2)c2c1ccn2S(=O)(=O)N(C)C` [Compound 3, (R)—N,N-dimethyl-4-(3-methylmorpholino)-6-(1H-pyrazol-3-yl)pyrazolo[3,4-b]pyrrolo[2,3-d]pyridine-1(6H)-sulfonamide trifluoroacetate], the negative-log IC50 (pIC50) in assay [1] is less than 4.52; in assay [2], less than 5.00; in assay [3], less than 5.00; in assay [4] (substrate Midazolam, read-out: IC50 3A4 (Midazolam)), less than 5.00; in assay [4] (substrate Testosterone, read-out: IC50 3A4 (Testosterone)), less than 5.00; in assay [5] it was 9.29.
